Experiments:
duck salad = assay: Test C flooded paddy test; type: in vivo, Heteranthera limosa; conditions: Flood, scale 0 to 100, 0 no effect, 100 complete control, 13 to 15 days
In short: (§1)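 Pots were flooded to 3 cm above the soil surface at treatment, compound applied directly to the paddy water, and that depth held throughout. Plants were kept in a greenhouse for 13 to 15 days, then visually rated against untreated controls.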

barnyardgrass = assay: Test C flooded paddy test; type: in vivo, Echinochloa crus-galli; conditions: Flood, scale 0 to 100, 0 no effect, 100 complete control, 13 to 15 days
In short: as §1

giant foxtail [1] = assay: Test C pre-/postemergence test; type: in vivo, Setaria faberii
In short: (§2)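 Compounds in a non-phytotoxic solvent with surfactant applied preemergence to seeded pots and, at the same time, postemergence to plants 2–18 cm tall (1- to 4-leaf stage). Paddy tests: pots flooded to 3 cm, compound applied into the water, depth held throughout.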

Goosegrass = assay: Test C pre-/postemergence test; type: in vivo, Eleusin indica
In short: as §2

velvetleaf [2] = assay: Test A pre-/postemergence greenhouse test; type: in vivo, Abutilon theophrasti; conditions: for Plant response rating, Velvetleaf: 0 to 100 scale where 0 is no effect and 100 is complete control; for Velvetleaf plant response rating: 0 to 100 scale
In short: (§3)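 Pots of loam–sand soil sown with the test species are sprayed preemergence on the soil surface; emerged seedlings (1–2 leaves, 2–10 cm) are sprayed postemergence at the same time. The vehicle is a non-phytotoxic solvent mixture with surfactant. Injury is scored visually after ~10 d in greenhouse.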

eastern black nightshade = assay: Test C pre-/postemergence test; type: in vivo, Solanum ptycanthum
In short: as §2

wheat = assay: Test A pre-/postemergence greenhouse test; type: in vivo, Triticum aestivum; conditions: for Plant response rating, Wheat: 0 to 100 scale where 0 is no effect and 100 is complete control; for Wheat plant response rating: 0 to 100 scale
In short: as §3

redroot pigweed = assay: Test A pre-/postemergence greenhouse test; type: in vivo, Amaranthus retroflexus; conditions: for Plant response rating, Pigweed: 0 to 100 scale where 0 is no effect and 100 is complete control; for Pigweed plant response rating: 0 to 100 scale
In short: as §3

bermudagrass = assay: Test C pre-/postemergence test; type: in vivo, Cynodon dactylon
In short: as §2

johnsongrass = assay: Test C pre-/postemergence test; type: in vivo, Sorghum halepense
In short: as §2

rice = assay: Test C flooded paddy test; type: in vivo, Oryza sativa; conditions: Flood, scale 0 to 100, 0 no effect, 100 complete control, 13 to 15 days
In short: as §1

giant foxtail [3] = assay: Test A pre-/postemergence greenhouse test; type: in vivo, Setaria faberi; conditions: for Plant response rating, Foxtail, Giant: 0 to 100 scale where 0 is no effect and 100 is complete control; for Foxtail, Giant plant response rating: 0 to 100 scale
In short: as §3

lambsquarters = assay: Test C pre-/postemergence test; type: in vivo, Chenopodium album
In short: as §2

wild oat = assay: Test C pre-/postemergence test; type: in vivo, Avena fatua
In short: as §2

Surinam grass = assay: Test C pre-/postemergence test; type: in vivo, Brachiaria decumbens
In short: as §2

corn = assay: Test A pre-/postemergence greenhouse test; type: in vivo, Zea mays; conditions: for Plant response rating, Corn: 0 to 100 scale where 0 is no effect and 100 is complete control; for Corn plant response rating: 0 to 100 scale
In short: as §3

common ragweed = assay: Test C pre-/postemergence test; type: in vivo, Ambrosia elation
In short: as §2

velvetleaf [4] = assay: Test C pre-/postemergence test; type: in vivo, Abutilon theophrasti
In short: as §2

[5] = 62 g ai/ha, Preemergence, scale 0 to 100
[6] = 125 g ai/ha, preemergence, scale 0 (no effect) to 100 (complete control)
[7] = Postemergence, 62 g ai/ha, scale 0 to 100, 0 no effect, 100 complete control
[8] = Postemergence, 125 g ai/ha, scale 0 to 100, 0 no effect, 100 complete control
[9] = Postemergence, 250 g ai/ha, scale 0 to 100, 0 no effect, 100 complete control
[10] = Preemergence, 31 g ai/ha, scale 0 to 100 (0 no effect, 100 complete control)
[11] = preemergence, 250 g ai/ha, scale 0 (no effect) to 100 (complete control)
[12] = Postemergence, 500 g ai/ha, 0 is no effect, 100 is complete control
[13] = Preemergence, 125 g ai/ha, 0 no effect, 100 complete control

[O-][n+]1cc(Cl)ccc1[S+]([O-])Cc1c(C(F)(F)F)nn(CC(F)(F)F)c1Cl (stereo not drawn) [Compound 47]
Plant response rating, Ducksalad (duck salad; 62 g ai/ha): 75 | Plant response rating, Ducksalad (duck salad; 250 g ai/ha): 90 | Plant response rating, Barnyardgrass (barnyardgrass; 62 g ai/ha): 50 | Plant response rating, Barnyardgrass (barnyardgrass; 250 g ai/ha): 80 | Foxtail, Giant plant response rating (giant foxtail [1]; [5]): 100 | Foxtail, Giant plant response rating (giant foxtail [1]; [6]): 100 | Plant response rating (0 to 100), Foxtail, Giant (giant foxtail [1]; Postemergence, 31 g ai/ha): 0 | Plant response rating, Foxtail, Giant (giant foxtail [1]; [7]): 0 | Plant response rating, Foxtail, Giant (giant foxtail [1]; [8]): 0 | Plant response rating, Foxtail, Giant (giant foxtail [1]; [9]): 50 | Plant response rating, Foxtail, Giant (giant foxtail [1]; [10]): 85 | Foxtail, Giant plant response rating (giant foxtail [1]; [11]): 100 | Goosegrass plant response rating (Goosegrass; [5]): 100 | Goosegrass plant response rating (Goosegrass; [6]): 100 | Plant response rating (0 to 100), Goosegrass (Goosegrass; Postemergence, 31 g ai/ha): 0 | Plant response rating, Goosegrass (Goosegrass; [7]): 0 | Plant response rating, Goosegrass (Goosegrass; [8]): 0 | Plant response rating, Goosegrass (Goosegrass; [9]): 60 | Plant response rating, Goosegrass (Goosegrass; [10]): 98 | Goosegrass plant response rating (Goosegrass; [11]): 100 | Plant response rating, Velvetleaf (velvetleaf [2]; Postemergence, 125 g ai/ha): 60 | Velvetleaf plant response rating (velvetleaf [2]; [12]): 70 | Velvetleaf plant response rating (velvetleaf [2]; [13]): 0 | Plant response rating, Velvetleaf (velvetleaf [2]; Preemergence, 500 g ai/ha): 100 | Nightshade plant response rating (eastern black nightshade; [5]): 85 | Nightshade plant response rating (eastern black nightshade; [6]): 90 | Plant response rating, Nightshade (eastern black nightshade; [10]): 0 | Nightshade plant response rating (eastern black nightshade; [11]): 100 | Plant response rating, Wheat (wheat; Postemergence, 125 g ai/ha): 50 | Wheat plant response rating (wheat; [12]): 60 | Wheat plant response rating (wheat; [13]): 60 | Plant response rating, Wheat (wheat; Preemergence, 500 g ai/ha): 90 | Plant response rating, Pigweed (redroot pigweed; Postemergence, 125 g ai/ha): 60 | Pigweed plant response rating (redroot pigweed; [12]): 80 | Pigweed plant response rating (redroot pigweed; [13]): 100 | Plant response rating, Pigweed (redroot pigweed; Preemergence, 500 g ai/ha): 100 | Bermudagrass plant response rating (bermudagrass; 62 g ai/ha, Preemergence, scale 0 to 100 (0 no effect, 100 complete control)): 100 | Bermudagrass plant response rating (bermudagrass; [6]): 100 | Plant response rating (0 to 100), Bermudagrass (bermudagrass; Postemergence, 31 g ai/ha): 0 | Plant response rating, Bermudagrass (bermudagrass; [7]): 0 | Plant response rating, Bermudagrass (bermudagrass; [8]): 0 | Plant response rating, Bermudagrass (bermudagrass; [9]): 0 | Plant response rating, Bermudagrass (bermudagrass; [10]): 80 | Bermudagrass plant response rating (bermudagrass; [11]): 100 | Johnsongrass plant response rating (johnsongrass; [5]): 90 | Johnsongrass plant response rating (johnsongrass; [6]): 100 | Plant response rating (0 to 100), Johnsongrass (johnsongrass; Postemergence, 31 g ai/ha): 0 | Plant response rating, Johnsongrass (johnsongrass; [7]): 0 | Plant response rating, Johnsongrass (johnsongrass; [8]): 0 | Plant response rating, Johnsongrass (johnsongrass; [9]): 85 | Plant response rating, Johnsongrass (johnsongrass; [10]): 85 | Johnsongrass plant response rating (johnsongrass; [11]): 100 | Plant response rating, Rice (rice; 62 g ai/ha): 55 | Plant response rating, Rice (rice; 250 g ai/ha): 65 | Plant response rating, Foxtail, Giant (giant foxtail [3]; Postemergence, 125 g ai/ha): 80 | Foxtail, Giant plant response rating (giant foxtail [3]; [12]): 90 | Foxtail, Giant plant response rating (giant foxtail [3]; [13]): 100 | Plant response rating, Foxtail, Giant (giant foxtail [3]; Preemergence, 500 g ai/ha): 100 | Lambsquarters plant response rating (lambsquarters; [5]): 100 | Lambsquarters plant response rating (lambsquarters; [6]): 100 | Plant response rating (0 to 100), Lambsquarters (lambsquarters; Postemergence, 31 g ai/ha): 0 | Plant response rating, Lambsquarters (lambsquarters; [7]): 0 | Plant response rating, Lambsquarters (lambsquarters; [8]): 0 | Plant response rating, Lambsquarters (lambsquarters; [9]): 50 | Plant response rating, Lambsquarters (lambsquarters; [10]): 100 | Lambsquarters plant response rating (lambsquarters; [11]): 100 | Oat, Wild plant response rating (wild oat; [5]): 10 | Oat, Wild plant response rating (wild oat; [6]): 90 | Plant response rating (0 to 100), Oat, Wild (wild oat; Postemergence, 31 g ai/ha): 0 | Plant response rating, Oat, Wild (wild oat; [7]): 0 | Plant response rating, Oat, Wild (wild oat; [8]): 10 | Plant response rating, Oat, Wild (wild oat; [9]): 40 | Plant response rating, Oat, Wild (wild oat; [10]): 10 | Oat, Wild plant response rating (wild oat; [11]): 95 | Surinam Grass plant response rating (Surinam grass; [5]): 80 | Surinam Grass plant response rating (Surinam grass; [6]): 100 | Plant response rating (0 to 100), Surinam Grass (Surinam grass; Postemergence, 31 g ai/ha): 0 | Plant response rating (0 to 100), Surinam Grass (Surinam grass; Postemergence, 62 g ai/ha): 0 | Plant response rating, Surinam Grass (Surinam grass; [8]): 0 | Plant response rating, Surinam Grass (Surinam grass; [9]): 60 | Plant response rating, Surinam Grass (Surinam grass; [10]): 50 | Surinam Grass plant response rating (Surinam grass; [11]): 100 | Plant response rating, Corn (corn; Postemergence, 125 g ai/ha): 50 | Corn plant response rating (corn; [12]): 70 | Corn plant response rating (corn; [13]): 50 | Plant response rating, Corn (corn; Preemergence, 500 g ai/ha): 90 | Ragweed plant response rating (common ragweed; [5]): 5 | Ragweed plant response rating (common ragweed; [6]): 5 | Plant response rating (0 to 100), Ragweed (common ragweed; Postemergence, 31 g ai/ha): 0 | Plant response rating (0 to 100), Ragweed (common ragweed; Postemergence, 62 g ai/ha): 0 | Plant response rating, Ragweed (common ragweed; [8]): 0 | Plant response rating, Ragweed (common ragweed; [9]): 0 | Plant response rating, Ragweed (common ragweed; [10]): 0 | Ragweed plant response rating (common ragweed; [11]): 50 | Velvetleaf plant response rating (velvetleaf [4]; [5]): 0 | Velvetleaf plant response rating (velvetleaf [4]; [6]): 70 | Plant response rating (0 to 100), Velvetleaf (velvetleaf [4]; Postemergence, 31 g ai/ha): 0 | Plant response rating (0 to 100), Velvetleaf (velvetleaf [4]; Postemergence, 62 g ai/ha): 0 | Plant response rating, Velvetleaf (velvetleaf [4]; [8]): 0 | Plant response rating, Velvetleaf (velvetleaf [4]; [9]): 20 | Plant response rating, Velvetleaf (velvetleaf [4]; [10]): 0 | Velvetleaf plant response rating (velvetleaf [4]; [11]): 100

Reference: US20100298141A1, “SUBSTITUTED PYRIDINE N-OXIDE HERBICIDES” (E. I. DU PONT DE NEMOURS AND COMPANY, priority 2007, published 2010)
